This note sets out measurements from ChEMBL document CHEMBL1143050, “QSAR study on permeability of hydrophobic compounds with artificial membranes” (Bioorg Med Chem, 2007).

The nature of data set [1]: Permeability coefficient through artificial membrane in presence of stirred water layer.
Data set [2] can be described thus: Intrinsic artificial membrane permeability coefficient, log P0 of the compound. In kind it is ADME.
A short description of data set [3]: Permeability coefficient through artificial membrane in presence of unstirred water layer by PAMPA. (In general: In PAMPA a lipid-coated filter parts donor from acceptor wells.)
Data set [4] in a line: Partition coefficient, log P of the compound. The conditions noted are these: octanol/water.
Data set [5] has as its system Caco-2. Nature of the data set: Permeability from apical to basolateral side of the Caco-2 cell membrane. In kind it is ADME, cell-based. Conditions: human. On the technique in general: Caco-2 monolayers are a common model of the intestinal barrier.
Data set [6] has as its system Caco-2. The data set can be described thus: Permeability from basolateral to apical side of the Caco-2 cell membrane. The data set is classed as ADME, cell-based. The conditions noted are these: human.
Data set [7] in a line: Permeability coefficient through artificial membrane in presence of stirred water layer at 200 rpm stirring speed. The data set is classed as ADME.
Data set [8] in a line: Permeability coefficient through artificial membrane in presence of stirred water layer at 250 rpm stirring speed. In kind it is ADME.
Data set [9] can be described thus: Permeability coefficient through artificial membrane in presence of stirred water layer at 100 rpm stirring speed. The data set is classed as ADME.

Values joined by “and” are separate entries in the source; they are usually repeats but may differ in a detail not shown here. Equal entries are not always repeated.

A word on the Papp: it is a coefficient for how fast a substance crosses the barrier. As for `O=C(O)c1ccccc1O` [SALICYLIC ACID], in data set [1] (PAMPA), the LogP app is recorded as -5.31 and the Papp came out at 4.9 ×10⁻⁶ cm/s. For the same compound, in data set [2], the logPm is given as -3.46.
The logP is the decadic logarithm of the partition coefficient of the neutral form, usually between octanol and water. Read a high logP as higher lipophilicity. On to `COc1ccc([C@@H]2Sc3ccccc3N(CCN(C)C)C(=O)[C@@H]2OC(C)=O)cc1` [DILTIAZEM], for which, in [3], the LogP app is recorded as -4.64 and the Papp was 0.34 ×10⁻⁶ cm/s. In data set [4], the logP was 2.8. The compound further gave a logPm in [2] of -1.85.
As for `CCOP(=S)(OCC)Oc1cc(C)nc(C(C)C)n1` [DIMPYLATE], the LogP app is -5.28 in data set [3], -4.51 in data set [1] (artificial membrane), -4.32 in the data set on Caco-2 [5] and -4.42 with Caco-2 [6]. The Papp in [3] is 5.21 ×10⁻⁶ cm/s; in [1] (PAMPA), 31.1 ×10⁻⁶ cm/s. Also, the logP in data set [4] was found to be 3.3.
With `CC(C)(C)N(NC(=O)c1ccccc1)C(=O)c1ccccc1` [RH-5849], the LogP app in data set [3] is -4.78; with Caco-2 [5], -4.34; in the data set on Caco-2 [6] it was -4.42. Moreover, the Papp in data set [3] came to 16.5 ×10⁻⁶ cm/s.
`CN1C(C(=O)Nc2ccccn2)=C(O)c2ccccc2S1(=O)=O` [PIROXICAM]: the Papp in data set [1] (PAMPA) amounted to 19.2 ×10⁻⁶ cm/s. In [1] (artificial membrane), the LogP app was -4.72. Further, the logP in [4] came out at 1.98. The same compound showed a logPm in data set [2] of -2.08.
Regarding `CCNc1nc(Cl)nc(NC(C)C)n1` [ATRAZINE], the LogP app is -4.53 in [3], -4.14 in [1] (artificial membrane), -4.39 with Caco-2 [5] and -4.45 with Caco-2 [6]. Moreover, the Papp was found to be 29.2 ×10⁻⁶ cm/s in data set [3] and 72.1 ×10⁻⁶ cm/s in data set [1] (PAMPA).
Turning to `COc1nn(CSP(=S)(OC)OC)c(=O)s1` [METHIDATHION], the LogP app in data set [3] is listed as -4.97; in [1] (artificial membrane), -4.33; in the data set on Caco-2 [6], -4.42. Moreover, the Papp stood at 10.8 ×10⁻⁶ cm/s in data set [3] and 46.9 ×10⁻⁶ cm/s in [1] (PAMPA). Besides, the logP in data set [4] came to 2.5.
Regarding `c1ccc(Nc2ccccc2)cc1` [DIPHENYLAMINE], the LogP app in [3] is reported as -5.51; in data set [1] (artificial membrane) it was -4.82; with Caco-2 [5], -4.4; in the data set with Caco-2 [6], -4.35. For the same compound, the Papp in data set [3] stood at 3.1 ×10⁻⁶ cm/s; in data set [1] (PAMPA), 15 ×10⁻⁶ cm/s.
`CCc1ccc(C(=O)NN(C(=O)c2cc(C)cc(C)c2)C(C)(C)C)cc1` [TEBUFENOZIDE]: the values for the LogP app (in data set [3]; with Caco-2 [5]; in the data set on Caco-2 [6]) were -4.8, -4.44 and -4.39, respectively. The Papp in [3] stood at 15.7 ×10⁻⁶ cm/s.
The corresponding values for `COc1cccc(C(=O)NN(C(=O)c2cc(C)cc(C)c2)C(C)(C)C)c1C` [METHOXYFENOZIDE] are -4.72, -4.33, -4.38 and 19.1 ×10⁻⁶ cm/s.
Consider `CC(C)Cc1ccc(C(C)C(=O)O)cc1` (configuration not stated) [IBUPROFEN], for which, in data set [3], the LogP app is -4.67 and -4.72. The compound further came in with a logPm in data set [2] of -1.15.
Take `C=CCc1ccccc1OCC(O)CNC(C)C` (configuration not stated) [ALPRENOLOL]: the LogP app was -4.7 in data set [3] and -4.21 in [1] (artificial membrane). Further, the Papp in data set [3] came to 11.5 ×10⁻⁶ cm/s; in data set [1] (PAMPA), 61.4 ×10⁻⁶ cm/s. Also, the logP in data set [4] stood at 2.65. Also, the logPm in data set [2] was -1.02.
Take `O=C1NC(=O)C(c2ccccc2)(c2ccccc2)N1` [PHENYTOIN]: the LogP app in data set [3] is reported as -4.41; in data set [1] (artificial membrane), -4.93. Also, in [1] (PAMPA), the Papp stood at 11.9 ×10⁻⁶ cm/s. The same compound returned a lipophilicity (logP) in data set [4] of 2.26.
Turning to `Clc1cccc(Cl)c1N=C1NCCN1` [CLONIDINE], the LogP app in data set [3] is -4.98. In addition, in [1] (PAMPA), the LogP app is on record as -4.94 and the Papp was determined as 11.4 ×10⁻⁶ cm/s. Besides, the logP in [4] was 1.43.
In the case of `Nc1ccc(Cl)cc1` [4-CHLOROANILINE], the LogP app in [3] was -4.38; in data set [1] (artificial membrane), -3.59. The Papp came out at 41.8 ×10⁻⁶ cm/s in data set [3] and 258 ×10⁻⁶ cm/s in data set [1] (PAMPA). The logP in data set [4] stood at 1.88.
Regarding `CC(C)NCC(O)COc1cccc2[nH]ccc12` (configuration not stated) [PINDOLOL], the LogP app in data set [3] is -5.31. For the same compound, in data set [1] (PAMPA), the LogP app was -5.85 and the Papp amounted to 1.42 ×10⁻⁶ cm/s. In addition, in data set [4], the logP was 1.75.
With `C[C@]12CC[C@H]3[C@@H](CCC4=CC(=O)CC[C@@]43C)[C@@H]1CC[C@@H]2O` [TESTOSTERONE], the LogP app in data set [3] was -4.95 and -4.77; in [1] (artificial membrane) it was -3.87; in data set [7], -4.08; in data set [8], -3.87; in data set [9], -4.29. In addition, in [1] (PAMPA), the Papp was 136 ×10⁻⁶ cm/s.
Take `COCCc1ccc(OCC(O)CNC(C)C)cc1` (configuration not stated) [METOPROLOL]: the LogP app in data set [3] is -5.1 and -4.95; in data set [1] (artificial membrane), -4.84. The Papp in data set [1] (PAMPA) came out at 14.3 ×10⁻⁶ cm/s. In addition, the logPm in data set [2] is reported as -1.75.
Take `C=CCOc1ccccc1OCC(O)CNC(C)C` (configuration not stated) [OXPRENOLOL]: the LogP app in data set [3] was -4.83. In data set [1] (PAMPA), the LogP app was -5.03 and the Papp is 9.36 ×10⁻⁶ cm/s. The logP in data set [4] stood at 2.1.
Regarding `c1ccc(-c2ccccc2)cc1` [BIPHENYL], in data set [3], the LogP app was -5.95 and the Papp worked out at 1.12 ×10⁻⁶ cm/s. For the same compound, in data set [1] (PAMPA), the LogP app was -4.27 and the Papp came to 53.3 ×10⁻⁶ cm/s. In [4], this compound had a logP of 4.01.
In the case of `CC(C(=O)O)c1cccc(C(=O)c2ccccc2)c1` (configuration not stated) [KETOPROFEN], the LogP app was -5.49 in [7] and -5.55 in data set [9]. In data set [2], this compound yielded a logPm of -2.43.
As to `CC(C)OP(=O)(OC(C)C)SCc1ccccc1` [IPROBENFOS], the LogP app in data set [3] is listed as -4.93; in data set [1] (artificial membrane) it was -3.44; in the data set on Caco-2 [5] it was -4.28; with Caco-2 [6], -4.35. Further, the Papp in data set [3] was 11.7 ×10⁻⁶ cm/s; in data set [1] (PAMPA), 362 ×10⁻⁶ cm/s. This compound also gave a logP in [4] of 3.21.
